This passage reports IC50 results from patent publication US11274091B2 (Dizal (Jiangsu) Pharmaceutical Co., Ltd., priority 2018, dated 2022).

For assay [1], the target named is human TRPC6 ion channel (Homo sapiens (Human), UniProt Q9Y210). The assay is described as follows: Inhibition of TRPC6 FLIPR Assay (membrane potential dye, OAG challenge). The note with it: TRPC6-HEK293 cells, OAG at EC80; most potent isolated isomer; mean of minimum 2 experiments. In kind it is cell-based. The source says: (§1) TRPC3 and TRPC6 channel opening causes an influx of predominantly calcium and sodium cations that result in a change in the electrical potential across the cell membrane. This change in membrane potential can be monitored using membrane potential dyes in the following FLIPR™ (Fluorescent Imaging Plate Reader) assays.
human TRPC6 ion channel, sequence (Q9Y210 whole entry): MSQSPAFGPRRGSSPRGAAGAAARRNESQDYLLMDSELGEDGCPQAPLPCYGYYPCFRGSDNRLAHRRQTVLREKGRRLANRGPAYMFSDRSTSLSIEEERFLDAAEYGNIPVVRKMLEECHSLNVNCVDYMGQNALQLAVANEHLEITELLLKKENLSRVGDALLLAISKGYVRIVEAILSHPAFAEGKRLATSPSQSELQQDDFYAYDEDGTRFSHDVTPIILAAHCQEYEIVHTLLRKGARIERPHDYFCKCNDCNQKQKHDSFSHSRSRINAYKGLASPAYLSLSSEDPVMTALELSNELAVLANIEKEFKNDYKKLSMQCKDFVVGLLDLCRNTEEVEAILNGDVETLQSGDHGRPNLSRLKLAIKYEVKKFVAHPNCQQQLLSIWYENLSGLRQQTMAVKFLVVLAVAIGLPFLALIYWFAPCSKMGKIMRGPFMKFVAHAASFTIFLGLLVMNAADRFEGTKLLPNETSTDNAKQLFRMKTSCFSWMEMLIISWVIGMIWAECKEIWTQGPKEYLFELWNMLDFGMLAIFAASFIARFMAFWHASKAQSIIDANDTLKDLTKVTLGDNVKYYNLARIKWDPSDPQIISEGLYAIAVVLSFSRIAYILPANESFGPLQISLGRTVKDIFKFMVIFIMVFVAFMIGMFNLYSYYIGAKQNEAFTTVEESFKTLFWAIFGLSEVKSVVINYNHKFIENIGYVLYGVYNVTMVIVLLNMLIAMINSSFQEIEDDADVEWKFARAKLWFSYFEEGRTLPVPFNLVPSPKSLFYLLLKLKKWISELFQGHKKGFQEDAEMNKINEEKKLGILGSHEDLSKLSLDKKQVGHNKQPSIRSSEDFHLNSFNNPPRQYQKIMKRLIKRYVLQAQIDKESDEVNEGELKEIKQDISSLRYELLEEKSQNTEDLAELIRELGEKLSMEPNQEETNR
TRPC6-HEK293 was purchased from PerkinElmer (PerkinElmer, Product No.: AX-012-C), HEK293 cells were transfected using the pcDNA3.1(+)expression vector containing the coding sequence of the human TRPC6 ion channel. The coding sequence used is identical to coding sequence of GenBank NM_004621 with the exception of 2 synonym variations (t1683c and c2529t). The cells were grown in DMEM+10% fetal bovine serum (FBS) 0.5 mg/ml. Geneticin (ion channel expression selection) as culture medium.
TRPC6 cells were plated at 10K cells/well into 384-well polystyrene plates and then grown for 24 hs at 37° C. plus 5% CO2. After this time the media was aspirated using a Tecan plate washer and then replaced with 40 μL of dye loading buffer (130 mM NaCl, 5 mM KCl, 0.15 mM CaCl2, 1 mM MgCl2, 20 mM HEPES ((4-(2-hydroxyethyl)-1-piperazineethanesulfonic acid)), 5 mM NaHCO3). For TRPC6, a final concentration of 0.5× is used. Cells with membrane potential dye were then incubated for 30 mins at room temperature prior to beginning the experiments.
(§2) To test the effects of compounds on TRPC6 activity, compounds were first diluted in 100% DMSO to 3× the final concentration to be used in the experiments. Typical dose-response experiments ranged from 10 μM (top concentration) to 0.5 nM (lowest concentration). Ten microliters of 0.5× compound in 0.5% DMSO were added to 40 μL of cells incubated with membrane potential dye. Compound addition was performed on a FLIPRTetra or a FLIPR 384 (MDS Analytical Technologies, Molecular Devices, Sunnyvale, Calif., 94089, USA). After a 400 second incubation with compound, 12.5 of OAG (1-oleoyl-2-acetyl-sn-glycerol (OAG), Sigma, Gillingham, Dorset, SP8 4XT Cat #O6754-10 MG) was added at 5× the EC80 (typical EC80 for TRPC6=3 μM final). The OAG challenge is designed to measure the inhibitory activity of compounds on receptor-operated TRPC6 activation.
(§3) All data was normalized to low controls (buffer alone) or high controls (OAG EC100). Data was analyzed using an XC50 curve fitting module and reported as pIC50 or IC50 values. The values are averaged to determine a mean value, for a minimum of 2 experiments.

For assay [2], the target named is human TRPC3 ion channel (Homo sapiens (Human), UniProt Q13507). The assay is described as follows: Inhibition of TRPC3 FLIPR Assay (membrane potential dye, OAG challenge). In kind it is cell-based. As to conditions: TRPC3 transfected AD293 cells, OAG at EC80; most potent isolated isomer; mean of minimum 2 experiments.
human TRPC3 ion channel, sequence (Q13507 whole entry): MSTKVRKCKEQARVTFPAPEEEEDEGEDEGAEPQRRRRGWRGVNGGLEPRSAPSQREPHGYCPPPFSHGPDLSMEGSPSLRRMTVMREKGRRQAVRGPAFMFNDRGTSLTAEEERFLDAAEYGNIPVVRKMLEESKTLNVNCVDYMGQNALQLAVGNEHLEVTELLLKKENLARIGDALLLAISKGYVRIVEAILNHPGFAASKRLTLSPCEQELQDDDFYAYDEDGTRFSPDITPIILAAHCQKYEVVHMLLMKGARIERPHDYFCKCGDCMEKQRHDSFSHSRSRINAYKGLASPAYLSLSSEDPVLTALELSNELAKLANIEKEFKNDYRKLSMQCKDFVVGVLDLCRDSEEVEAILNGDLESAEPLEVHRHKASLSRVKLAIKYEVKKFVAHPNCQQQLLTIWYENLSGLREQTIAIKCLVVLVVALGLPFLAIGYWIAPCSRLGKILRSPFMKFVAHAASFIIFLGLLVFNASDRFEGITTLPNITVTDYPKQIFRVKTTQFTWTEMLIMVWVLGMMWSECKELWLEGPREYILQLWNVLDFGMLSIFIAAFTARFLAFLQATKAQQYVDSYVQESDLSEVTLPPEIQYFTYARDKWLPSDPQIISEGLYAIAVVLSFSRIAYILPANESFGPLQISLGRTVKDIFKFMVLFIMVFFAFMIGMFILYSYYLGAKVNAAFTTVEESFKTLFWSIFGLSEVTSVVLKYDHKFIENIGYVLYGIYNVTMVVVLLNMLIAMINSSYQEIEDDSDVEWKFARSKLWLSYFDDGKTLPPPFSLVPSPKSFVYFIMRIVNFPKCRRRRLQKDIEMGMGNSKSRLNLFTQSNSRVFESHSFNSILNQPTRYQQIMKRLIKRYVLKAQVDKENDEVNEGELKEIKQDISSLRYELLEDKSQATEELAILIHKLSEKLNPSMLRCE
Excerpt: as §1
AD293 cells were transfected using the PLVX-puro lentivirus vector containing the coding sequence of the human TRPC3 ion channel. Puromycin-resistant cells were selected by treating with […] puromycin for two weeks. Monoclonal cells were obtained by limiting dilution and compared for their response to OAG in a membrane potential assay. The cells were grown in DMEM+10% fetal bovine serum (FBS)+1 μg/mL puromycin as culture medium.
TRPC3 cells were plated at 9K/well into 384-well polystyrene plates. Cells were grown for 24 h at 37° C. plus 5% CO2 after which media was aspirated using a Tecan plate washer and replaced with 40 μL of dye loading buffer (130 mM NaCl, 5 mM KCl, 0.15 mM CaCl2, 1 mM MgCl2, 20 mM HEPES ((4-(2-hydroxyethyl)-1-piperazineethanesulfonic acid)), 5 mM NaHCO3). For TRPC3 a final concentration of 0.5× membrane potential dye (Molecular Devices Membrane Blue, FLIPR Membrane Potential Assay Kit (bulk), Product #R8034(BLUE), Molecular Devices, Sunnyvale, Calif., 94089, USA) was used. Cells with membrane potential dye were then incubated for 30 mins at room temperature prior to beginning the experiments.
as §2, with “TRPC3” for “TRPC6”, “5×” for “0.5×”, “Technologies).” for “Technologies, Molecular Devices, Sunnyvale, Calif., 94089, USA).”, “12.5 μL” for “12.5”, “OAG” for “OAG (1-oleoyl-2-acetyl-sn-glycerol (OAG), Sigma, Gillingham, Dorset, SP8 4XT Cat #O6754-10 MG)”, “TRPC3=2” for “TRPC6=3”
as §3

Consider `N#Cc1ccc(OC2CC(c3ccc(F)c(O)c3)CC2N2CCCC(N)C2)cc1` (stereo not drawn) [Example 14, 4-[2-(3-amino-1-piperidyl)-4-(4-fluoro-3-hydroxy-phenyl)cyclopentoxy]benzonitrile], for which the IC50 in assay [1] is 17.4 nM; in assay [2], 58.8 nM.

Regarding `COc1cc(C2CC(Oc3ccc(C#N)cc3)C(N3CCCC(N)C3)C2)ccc1F` (stereo not drawn) [Example 15, 4-[2-(3-amino-1-piperidyl)-4-(4-fluoro-3-methoxy-phenyl)cyclopentoxy]benzonitrile], the IC50 was 9.51 nM in assay [1] and 22.5 nM in assay [2].

Turning to `N#Cc1ccc(OC2CC(c3cccc(F)c3)CC2N2CCCC(N)C2)c(Cl)c1` (stereo not drawn) [Example 16, 4-[2-(3-amino-1-piperidyl)-4-(3-fluorophenyl)cyclopentoxy]-3-chloro-benzonitrile], the values for the IC50 in assay [1] and in assay [2] were 19.3 nM and 69.5 nM, respectively.

With `N#Cc1ccc(OC2CC(c3ccc(F)cc3)CC2N2CCC(F)(F)C(N)C2)cc1` (stereo not drawn) [Example 17, 4-[2-(3-amino-4,4-difluoro-1-piperidyl)-4-(4-fluorophenyl)cyclopentoxy]benzonitrile], the IC50 came to 20.7 nM in assay [1] and 46.1 nM in assay [2].

Consider `N#Cc1ccc(OC2CC(c3ccc(F)cc3)CC2N2CC(N)CC(F)(F)C2)cc1` (stereo not drawn) [Example 18, 4-[2-(5-amino-3,3-difluoro-1-piperidyl)-4-(4-fluorophenyl)cyclopentoxy]benzonitrile], for which the IC50 in assay [1] was determined as 31.1 nM; in assay [2] it was 42.5 nM.

For `N#Cc1ccc(OC2CC(c3ccc(F)cc3)CC2N2CCCC(N)C2)cc1F` (stereo not drawn) [Example 19, 4-[2-(3-amino-1-piperidyl)-4-(4-fluorophenyl)cyclopentoxy]-2-fluoro-benzonitrile], the IC50 was determined as 25.1 nM in assay [1] and 64.5 nM in assay [2].

Take `N#Cc1ccccc1OC1CC(c2ccccc2)CC1N1CCCC(N)C1` (stereo not drawn) [Example 20, 2-[2-(3-amino-1-piperidyl)-4-phenyl-cyclopentoxy]benzonitrile]: the IC50 in assay [1] is 14.1 nM; in assay [2], 38.8 nM.

For the compound `N#Cc1ccc(OC2CC(c3ccccc3)CC2N2CCCC(N)C2)c(Cl)c1` (stereo not drawn) [Example 21, 4-[2-(3-amino-1-piperidyl)-4-phenyl-cyclopentoxy]-3-chloro-benzonitrile], the IC50 in assay [1] came out at 17.4 nM; in assay [2], 72.3 nM.

In the case of `Cc1cc(C#N)nnc1OC1CC(c2ccc(F)cc2)CC1N1CC(N)CC(F)C1` (stereo not drawn) [Example 22, 6-[2-(3-amino-5-fluoro-1-piperidyl)-4-(4-fluorophenyl)cyclopentoxy]-5-methyl-pyridazine-3-carbonitrile], the results for the IC50 in assay [1] and in assay [2] were 28.8 nM and 118 nM, respectively.

As to `NC1CCCN(C2CC(c3ccc(F)cc3)CC2Oc2nnccc2Cl)C1` (stereo not drawn) [Example 23, 1-[2-(4-chloropyridazin-3-yl)oxy-4-(4-fluorophenyl)cyclopentyl]piperidin-3-amine], the IC50 in assay [1] is 6.56 nM; in assay [2], 11.3 nM.

Turning to `N#Cc1ccc(OC2CC(c3ccc(F)cc3)CC2N2CC(N)CC(F)C2)nn1` (stereo not drawn) [Example 24, 6-[2-(3-amino-5-fluoro-1-piperidyl)-4-(4-fluorophenyl)cyclopentoxy]pyridazine-3-carbonitrile], the IC50 in assay [1] is more than 11.8 nM; in assay [2], 7.2 nM.

Consider `N[C@@H]1CCCN([C@H]2C[C@@H](c3ccc(F)cc3)C[C@@H]2Oc2cc(F)cnn2)C1` [Example 25, (R)-1-((1S,2S,4R)-4-(4-fluorophenyl)-2-(5-fluoropyridazin-3-yloxy)cyclopentyl)piperidin-3-amine], for which the IC50 in assay [1] was 9.93 nM; in assay [2] it was 209 nM.

As for `N#Cc1ccc(OC2CC(c3ccc(F)cc3)CC2N2CCCC(N)C2)cn1` (stereo not drawn) [Example 27], the IC50 in assay [1] is 22 nM; in assay [2], 50.7 nM.

On to `NC1CCCN(C2CC(c3ccc(F)cc3)CC2Oc2cccnn2)C1` (stereo not drawn) [Example 28, 1-[4-(4-fluorophenyl)-2-pyridazin-3-yloxy-cyclopentyl]piperidin-3-amine], for which the half-inhibitory concentration (IC50) in assay [1] was determined as 17.8 nM; in assay [2], 32.2 nM.

`NC1CC(F)CN(C2CC(c3ccc(F)cc3)CC2Oc2ccncn2)C1` (stereo not drawn) [Example 29, 5-fluoro-1-[4-(4-fluorophenyl)-2-pyrimidin-4-yloxy-cyclopentyl]piperidin-3-amine]: the IC50 in assay [1] turned out to be 3.44 nM; in assay [2], 3.68 nM.

Turning to `N#Cc1cnc(OC2CC(c3ccc(F)cc3)CC2N2CCCC(N)C2)nc1` (stereo not drawn) [Example 30, 2-[2-(3-amino-1-piperidyl)-4-(4-fluorophenyl)cyclopentoxy]pyrimidine-5-carbonitrile], the values for the 50% inhibitory concentration (IC50) in assay [1] and in assay [2] were 11.5 nM and 24 nM, respectively.

Consider `N#Cc1cnc(OC2CC(c3ccc(F)cc3)CC2N2CCCC(N)C2)cn1` (stereo not drawn) [Example 31, 5-[2-(3-amino-1-piperidyl)-4-(4-fluorophenyl)cyclopentoxy]pyrazine-2-carbonitrile], for which the IC50 in assay [1] was 13.7 nM; in assay [2] it was 25.5 nM.

Regarding `N#Cc1ncc(OC2CC(c3ccc(F)cc3)CC2N2CCCC(N)C2)cn1` (stereo not drawn) [Example 32, 5-[2-(3-amino-1-piperidyl)-4-(4-fluorophenyl)cyclopentoxy]pyrimidine-2-carbonitrile], the IC50 in assay [1] stood at 10.6 nM; in assay [2], 39.2 nM.
